Measurements published in patent publication US10898459B2, “Method of treating chronic kidney disease” (Panion & BF Biotech Inc., priority 2006, dated 2021).

How the values were obtained:
[1] = 37° C.; cited from earlier work

Substance	Intrinsic Dissolution Rates (37° C., solution of pH 8) [mg/cm^2/min]	other results
ferric citrate [PAN031203A]	3.82	–
ferric citrate [PAN031203B]	4.00	–
ferric citrate [PAN031203C]	2.68	–
ferric citrate [PAN031203D]	2.95	–
ferric citrate [PAN031203E]	3.13	–
ferric citrate [STM-134, reference compound]	1.88	Mean Intrinsic Dissolution Rates (37° C., solution of pH 8): 1.88 mg/cm^2/min; Mean Dissolution Rates (Table 2, one value for the pair of samples -1 and -2, listed as STM-134-1): 2.47 mg/cm2/min
ferric citrate [crystalline ferric citrate]	–	rate of dissolution (time) [1]: 10 to 12 h
